From PubChem BioAssay (NCI)
“And” between values parts separate entries of the source, which are not always exact repeats. Identical values can stand only once.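 Briefly, cells in 96-well plates were exposed to five compound concentrations for 48 h, and endpoints were estimated by linear interpolation. The concentration for 50% growth inhibition is given as GI50. TGI denotes the concentration required for complete inhibition of growth.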

Assays:
Assay in all cases: DTP human tumour cell line panel, 48 h
[1] = test system: HOP-92 NSCLC
[2] = test system: OVCAR-3 ovarian
[3] = test system: SK-MEL-2 melanoma
[4] = test system: OVCAR-4 ovarian
[5] = test system: SW-620 colon
[6] = test system: MDA-MB-231 breast
[7] = test system: SF-268 CNS
[8] = test system: SK-MEL-28 melanoma
[9] = test system: M14 melanoma
[10] = test system: HS 578T breast

SMILES	GI50 [1]	TGI [1]	GI50 [2]	TGI [2]	GI50 [3]	TGI [3]	GI50 [4]	TGI [4]	GI50 [5]	TGI [5]	GI50 [6]	TGI [6]	GI50 [7]	TGI [7]	GI50 [8]	TGI [8]	GI50 [9]	TGI [9]	GI50 [10]	TGI [10]
CNCCNc1c2c(c(NCCNC)c3c(CN(C)C)c[nH]c13)C(=O)c1ccccc1C2=O	1.02 µM	5.33 µM	1.03 µM	6.8 µM	2.94 µM	16.4 µM	4.79 µM	17.5 µM	1.31 µM	11 µM	0.486 µM	8.31 µM	1.3 µM	9.21 µM	9.59 µM	26.4 µM	5.58 µM	15.5 µM	1.7 µM	7.92 µM
C[C@H]1c2cccc(O)c2C(O)=C2C(=O)[C@]3(O)C(O)=C(C(N)=O)C(=O)[C@@H](N(C)C)[C@@H]3[C@@H](O)[C@@H]21	2.35 µM	6.18 µM	2.5 µM	6.85 µM	3.13 µM	8.99 µM	3.34 µM	42.1 µM	3.02 µM	14.6 µM	3.39 µM	13.5 µM	3.33 µM	12.1 µM	4.14 µM	16.4 µM	3.28 µM	12.6 µM	3.42 µM	27 µM
COc1cc(C(=O)c2cc(C)c3[nH]c4ccc(Cl)cc4c3c2C)cc(OC)c1OC	0.156 µM	4.65 µM	0.0329 µM	7.16 µM	0.575 µM	17.3 µM	1.16 µM	27.2 µM	0.0415 µM	24.8 µM	0.0496 µM	2.32 µM	0.182 µM	16.2 µM	1.44 µM	17 µM	0.033 µM	12.4 µM	0.0364 µM	10.6 µM
C#Cc1cccc(Nc2ncnc3cc(OC)c(OCCCCCCC(=O)NO)cc23)c1	0.0512 µM	0.415 µM	0.129 µM	1.64 µM	0.309 µM	1.85 µM	0.374 µM	5.34 µM	0.058 µM	0.319 µM	0.274 µM	2.29 µM	0.379 µM	2.65 µM	0.136 µM	1.47 µM	0.21 µM	1.99 µM	0.086 µM	1.04 µM
CNCCCn1cc(C2=C(c3cn(C)c4ccccc34)C(=O)NC2=O)c2ccccc21	2.63 µM	10.1 µM	5.14 µM	13.8 µM	4.3 µM	8.52 µM	3.06 µM	14.1 µM	3.72 µM	8.13 µM	5.32 µM	15.1 µM	5.24 µM	12 µM	3.85 µM	7.8 µM	4.17 µM	7.98 µM	2.06 µM	9.64 µM
COc1ccc(N2C(=O)C(c3ccccc3)(c3ccccc3)C23C(=O)N(C)c2ccccc23)cc1 (centres undefined)	> 100 µM	> 100 µM	> 100 µM	> 100 µM	> 100 µM	> 100 µM	> 100 µM	> 100 µM	> 100 µM	> 100 µM	54 µM	> 100 µM	> 100 µM	> 100 µM	> 100 µM	> 100 µM	> 100 µM	> 100 µM	> 100 µM	> 100 µM
CC[C@]12C=CCN3CC[C@@]4(c5ccc(OC)cc5N(C)[C@H]4[C@@](O)(C(=O)OC)[C@@H]1OC(=O)CCC[P+](c1ccccc1)(c1ccccc1)c1ccccc1)[C@@H]32	0.0934 µM and 0.241 µM	0.78 µM and 0.946 µM	0.291 µM and 0.447 µM	2.97 µM and 1.99 µM	0.441 µM and 0.356 µM	1.52 µM and 1.27 µM	0.317 µM and 0.322 µM	6.1 µM and 2.32 µM	1.01 µM and 0.749 µM	7.04 µM and 11.4 µM	0.467 µM and 0.525 µM	1.85 µM and 2.25 µM	0.933 µM and 0.455 µM	6.84 µM and 2.65 µM	0.274 µM and 0.442 µM	1.06 µM and 1.67 µM	0.762 µM and 1.05 µM	2.93 µM and 2.85 µM	1.21 µM and 1.15 µM	6.71 µM and 5.07 µM
Clc1coc2nc3ccccc3c(Nc3ccc4c(c3)OCO4)c12	8 µM	63.2 µM	0.596 µM	2.46 µM	5.99 µM	> 100 µM	22.8 µM	> 100 µM	3.22 µM	12.1 µM	0.974 µM	81.3 µM	5.6 µM	54 µM	3.49 µM	> 71.4 µM	0.699 µM	13.8 µM	1.89 µM	5.37 µM
Cn1cc(C2=C(c3ccc4ccccc4c3)C(=O)NC2=O)c2ccccc21	> 25 µM	> 25 µM	> 25 µM	> 25 µM	> 25 µM	> 25 µM	> 25 µM	> 25 µM	8.28 µM	> 25 µM	> 25 µM	> 25 µM	> 25 µM	> 25 µM	> 25 µM	> 25 µM	> 21 µM	> 25 µM	> 17.7 µM	> 25 µM
CCC[CH2][Sn]([CH2]CCC)([CH2]CCC)[O]C(=O)CC	0.137 µM	0.429 µM	0.133 µM	0.261 µM	0.186 µM	0.37 µM	0.125 µM	0.26 µM	0.151 µM	0.301 µM	0.144 µM	0.343 µM	0.146 µM	0.345 µM	0.161 µM	0.318 µM	0.167 µM	0.343 µM	0.18 µM	0.708 µM
O=C1NC(=Nc2ccccc2)S/C1=C\c1ccc2ncccc2c1	> 25 µM	> 25 µM	1.11 µM	> 25 µM	> 17.9 µM	> 25 µM	> 25 µM	> 25 µM	0.965 µM	> 25 µM	> 25 µM	> 25 µM	> 10.3 µM	> 25 µM	> 25 µM	> 25 µM	> 25 µM	> 25 µM	> 11.8 µM	> 25 µM
C/C1=C\CC[C@@]2(C)O[C@@H]2[C@H]2OC(=O)[C@@H](CN(C)C)[C@@H]2CC1	9.87 µM	29.7 µM	12.1 µM	32.4 µM	14.2 µM	34.8 µM	16.6 µM	40 µM	3.76 µM	> 100 µM	14.2 µM	34.6 µM	38.7 µM	> 100 µM	21.9 µM	51.6 µM	16.3 µM	35.2 µM	22.7 µM	> 100 µM
CC/C(=C(/c1ccc(OCCN(C)C)cc1)c1ccc(OC(=O)CCCCC(=O)c2c(C)[nH]c(/C=C3\N=C(c4ccc[nH]4)C=C3OC)c2C)cc1)c1ccccc1	1.12 µM	6.28 µM	11.7 µM	27 µM	16.7 µM	33.5 µM	4.39 µM	22.3 µM	3.16 µM	11.4 µM	1.99 µM	11.4 µM	7.79 µM	30 µM	11.6 µM	23.7 µM	1.84 µM	4 µM	4.98 µM	47.6 µM
C=C(C)[C@@]12OC3(/C=C/C=C/CCCCC)O[C@@H]1[C@@H]1[C@@H]4O[C@]4(CO)[C@@H](O)[C@]4(O)C(=O)C(C)=C[C@H]4[C@@]1(O3)[C@H](C)[C@H]2OC(=O)c1ccccc1	< 0.01 µM	2.13 µM	1.68 µM	3.08 µM	1.48 µM	3.85 µM	1.91 µM	3.82 µM	–	–	0.118 µM	2.27 µM	1.7 µM	3.15 µM	1.18 µM	2.42 µM	1.57 µM	5.38 µM	< 0.01 µM	2.21 µM
Cc1c2cccnc2c(C)c2c1c1cc(CO)ccc1n2C	2.1 µM	7.31 µM	2.38 µM	–	2.87 µM	8.47 µM	2.82 µM	10.5 µM	1.25 µM	14.5 µM	2.61 µM	13.2 µM	2.29 µM	15.1 µM	3.01 µM	10.9 µM	2.49 µM	10.4 µM	3.38 µM	34.5 µM
O=C(c1ccccc1)c1cc(Cl)ccc1OCCCCN1CCN(CCCCOc2ccc(Cl)cc2C(=O)c2ccccc2)CC1	2.53 µM	13 µM	2.36 µM	5.78 µM	2.58 µM	4.92 µM	6.63 µM	20.5 µM	2.92 µM	8.5 µM	2.4 µM	5.75 µM	7.03 µM	23.8 µM	11.5 µM	24.2 µM	2.01 µM	4.14 µM	2.19 µM	4.43 µM
C[As](C)SC1OC(CO)C(O)C1O (centres undefined)	0.0884 µM	0.955 µM	0.0623 µM	0.203 µM	0.708 µM	2.92 µM	1.69 µM	16.3 µM	0.391 µM	1.61 µM	0.725 µM	3.69 µM	0.998 µM	5.73 µM	0.522 µM	5.45 µM	0.232 µM	0.767 µM	0.968 µM	7.59 µM
CC(=O)OC1Oc2ccccc2-c2oc(=O)c(-c3cc(=O)oc4cc(O)ccc34)cc21 (centres undefined)	14.1 µM	40.9 µM	13.8 µM	41.4 µM	19.2 µM	89 µM	25 µM	> 100 µM	25.8 µM	74.4 µM	24.9 µM	81.5 µM	26.2 µM	80.3 µM	34.5 µM	> 100 µM	26.7 µM	83.9 µM	17.9 µM	52 µM
O=c1n(CC2CO2)c(=O)n(CC2CO2)c(=O)n1CC1CO1 (centres undefined)	18 µM and 7.22 µM	63.7 µM and 111 µM and > 100 µM	20.6 µM and 13.1 µM	108 µM and 40.2 µM	36.9 µM and 33 µM	215 µM and > 100 µM	25.9 µM and 23 µM	112 µM and > 100 µM	26.3 µM and 13.2 µM	228 µM and > 100 µM	35.1 µM and 52.4 µM	84.8 µM and > 100 µM	11.7 µM and 3.66 µM	241 µM and > 100 µM	22.7 µM	139 µM and > 100 µM	13.2 µM and 6.77 µM	57.3 µM and > 100 µM	21.6 µM	188 µM and > 100 µM
C=C(C=O)C1CCC2(C(=O)O)CCC3(C)C(CCC4C5(C)CCC(O)C(C)(C)C5CCC43C)C12 (centres undefined)	19.7 µM	64.6 µM	1.44 µM	2.87 µM	3.82 µM	12 µM	4.83 µM	22.2 µM	1.99 µM	5.07 µM	4.92 µM	50.4 µM	2.15 µM	10.5 µM	1.96 µM	4.62 µM	2.23 µM	6.92 µM	10.1 µM	> 100 µM
COc1ccc2c(c1)CCC1C2CC[C@@]2(C)C1CC1=CC(COC(C)=O)C3C(=O)c4ccccc4C(=O)C3C12 (some centres undefined)	1.43 µM	49.7 µM	> 100 µM	> 100 µM	> 100 µM	> 100 µM	> 100 µM	> 100 µM	> 100 µM	> 100 µM	52.4 µM	> 100 µM	> 100 µM	> 100 µM	> 100 µM	> 100 µM	> 100 µM	> 100 µM	89 µM	> 100 µM
O=S(=O)(Nc1cc(F)cc(Cl)c1)c1ccc(-c2cnc(C3CC3)o2)cc1	0.979 µM	8.45 µM	0.489 µM	12.2 µM	4.66 µM	26.9 µM	5.64 µM	21.9 µM	0.599 µM	15.5 µM	4.14 µM	19.3 µM	6.47 µM	26.2 µM	10.3 µM	23.7 µM	0.923 µM	15.5 µM	1.02 µM	17.2 µM
Ic1ccc(Nc2nc3nonc3nc2Nc2ccc(I)cc2)cc1	0.0408 µM	0.458 µM	0.214 µM	> 100 µM	0.143 µM	0.692 µM	0.246 µM	> 100 µM	0.296 µM	> 100 µM	0.209 µM	0.641 µM	0.304 µM	> 100 µM	–	–	–	–	0.329 µM	2.21 µM
COC(=O)c1cc2c(cc1O)[C@@H](NC(C)=O)CCc1cc(OC)c(OC)c(OC)c1-2	–	8.75 µM	–	–	< 0.01 µM	0.0371 µM	1.06 µM	> 100 µM	0.0235 µM	> 100 µM	0.0542 µM	> 100 µM	0.447 µM	> 100 µM	> 100 µM	> 100 µM	0.0293 µM	> 100 µM	–	0.0481 µM
